Experiments:
Assay type in all cases: cell-based
[1] = system: human normal lymphocytes adhering to vascular endothelial cells of the normal human umbilical cord; assay: inhibition of adhesion of human normal lymphocytes to rhIL1β-stimulated vascular endothelial cells, oily emulsion; conditions: 20 μg/ml equivalent; for Amount adhered (fluorescence intensity): rhIL1β 200 U/ml, 485 nm/535 nm
Experimental: (§1) A mixed solution of 6 mg of egg yolk lecithin (manufactured by Nacalaitesque Inc.), 30 μl of soybean oil J. P. (manufactured by Yoshida Seiyaku), 470 μl of distilled water for injection (manufacturedby Otsuka Seiyaku) and 125 μg of a compound of the invention was ultrasonicated (an output of 90 watts) for 10 min. to prepare an oily emulsion. The oily emulsion was further passed through a polycarbonate membrane filter having 0.2 μm average pore diameter (manufactured by Millipore) to provide an average particle size of 0.2 μm.
Vascular endothelial cells of the normal human umbilical cord grown to confluence were stimulated in 24-well plates with 200 U/ml of rhIL1ββat 37° C. for 4 hours. After removal of the supernatant by suction, oily emulsions each prepared from a compound of the invention in an amount of 20 μg/ml equivalent were added except for the rhIL1β-untreated (Sample 1) and treated groups (Samples 2 and 3). The mixtures were then allowed to react at room temperature for 30 min. Subsequently, human normal lymphocytes with 2',7'-bis(carboxyethyl)-5,6-carboxyfluorescence acetoxymethyl ester fluorescent dye enclosed was added at a level of 2×10^6 cells per well followed by centrifugal operation at 100 rpm for 20 min. Each well was washed three times followed by addition of 0.5 ml of 0.5% Triton X-100 and stirring. The contents were divided into 100 μl portions in 96-well plates and measurement was made on a Baxter fluorometer at 485 nm/535 nm.
4: rhIL1β-treated group+2→3 sialyl Lewis X-containing oily emulsion dispersion-treated group
5: rhIL1β-treated group+compound 5E-containing oily emulsion dispersion-treated group (OEG)
(§2) 6: rhIL1β-treated group+compound 5A-containing oily emulsion dispersion-treated group (2EG)
(§3) 7: rhIL1β-treated group+compound 5B-containing oily emulsion dispersion-treated group (3EG)
(§4) 8: rhIL1β-treated group+compound 5C-containing oily emulsion dispersion-treated group (4EG)
(§5) 9: rhIL1β-treated group+compound 5D-containing oily emulsion dispersion-treated group (5EG)
Amount adhered and percent inhibition of adhesion of human normal lymphocytes as measured from fluorescence intensity are shown in Table 5 below.

[2] = system: Colo 201 cancer cells adhering to vascular endothelial cells of the normal human umbilical cord; assay: inhibition of adhesion of Colo 201 cancer cells to rhIL1β-stimulated vascular endothelial cells, liposome dispersion; conditions: 11.8 μM equivalent; for Amount of Colo 201 cells adhered (fluorescence intensity): rhIL1β 200 U/ml, 485 nm
Experimental: A solution of 200 μg of phosphatidylcholine, 100 μg of cholesterol, 7.5 μg of dicetyl phosphate and 50 μg of a compound of the invention in a mixture of chloroform/methanol=2/1 (ca. 1 ml) was evaporated under reduced pressure to dryness followed by addition of 0.25 ml of a phosphate-buffered saline solution. The mixture was ultrasonicated (an output of 90 watts) for 5 min. and stirred (a vortex mixer) for 5 min. to form a liposome dispersion.
(§6) % Inhibition of adhesion=100-[(fluorescence intensity for rhIL1β-treated group+compound-free or a compound-containing liposome dispersion-treated group)-(fluorescence intensity for rhIL1β-untreated group)/(fluorescence intensity for rhIL1β-treated group-fluorescence intensity for rhIL1β-untreatedgroup)]×100
Vascular endothelial cells of the normal human umbilical cord grown to confluence were stimulated in 24-well plates with 200 U/ml of rhIL1β at 37° C. for 4 hours. After removal of the supernatant by suction liposome dispersions each prepared from 2→3 sialyl Le^x or a compound of the invention in an amount of 11.8 μM equivalent were added except for the rhIL1β-untreated and treated groups. The mixtures were then allowed to react at room temperature for 30 min. Subsequently, colon carcinoma cell line Colo 201 with 2',7'-bis-(carboxyethyl)-5,6-carboxyfluorescene acetoxymethyl ester fluorescent dye enclosed was added at a level of 1×10^6 cells per well followed by centrifugal operation at 100 rpm for 20 min. Each well was washed three times followed by addition of 0.5 ml of 0.5% Triton X-100 and stirring. The contents were divided into 100 μl portions in 96-well plates and measurement was made on a Baxter fluorometer at 485 nm.
4: rhIL1β-treated group+2→3 sialyl Le^x -containing liposome dispersion-treated group
5: rhIL1β-treated group+compound 5E-containing liposome dispersion-treated group (OEG)*
6: rhIL1β-treated group+compound 5A-containing liposome dispersion-treated group (2EG)
7: rhIL1β-treated group+compound 5B-containing liposome dispersion-treated group (3EG)
8: rhIL1β-treated group+compound 5C-containing liposome dispersion-treated group (4EG)
9: rhIL1β-treated group+compound 5D-containing liposome dispersion-treated group (5EG)
* OEG represents a control compound containing no CH2 CH2 O unit. The same shall apply hereinafter.
Amount adhered and % inhibition of adhesion of Colo 201 cancer cells as measured from fluorescence intensity are shown in Table 2 below.

[3] = system: HL-60 cancer cells adhering to vascular endothelial cells of the normal human umbilical cord; assay: inhibition of adhesion of HL-60 cancer cells to rhIL1β-stimulated vascular endothelial cells, oily emulsion; conditions: 20 μg/ml equivalent; for Amount of HL-60 cancer cells adhered (fluorescence intensity): rhIL1β 200 U/ml, 485 nm/535 nm
Experimental: as §1
Vascular endothelial cells of the normal human umbilical cord grown to confluence were stimulated in 24-well plates with 200 U/ml of rhIL1β at 37° C. for 4 hours. After removal of the supernatant by suction, oily emulsions each prepared from a compound of the invention in an amount of 20 μg/ml equivalent were added except for the rhIL1β-untreated group (sample 1) and the treated groups (samples 2 and 3). The mixtures were then allowed to react at room temperature for 30 min. Subsequently, promyelocytic leukemia cell line HL-60 with 2',7'-bis(carboxyethyl)-5,6-carboxyfluorescene acetoxymethyl ester fluorescent dye enclosed was added at a level of 1×10^6 cells per well followed by centrifugal operation at 100 rpm for 20 min. Each well was washed three times followed by addition of 0.5 ml of 0.5% Triton X-100 and stirring. The contents were divided into 100 μl portions in 96-well plates and measurement was made on a Baxter fluorometer at 485 nm/535 nm.
4: rhIL1β-treated group+2→3 sialyl Lewis X (natural type)-containing oily emulsion dispersion-treated group
5: rhlL1β-treated group+compound 5E-containing oily emulsion dispersion-treated group (OEG)
as §2, §3, §4, §5
as §6, with “inhibition” for “Inhibition”, “oily emulsion” for “liposome”

SMILES | Amount adhered (fluorescence intensity) [1] | Amount of Colo 201 cells adhered (fluorescence intensity) [2] | Amount of HL-60 cancer cells adhered (fluorescence intensity) [3] | % Inhibition of adhesion [1] | % Inhibition of adhesion ([2]; Colo 201 cells) | % Inhibition of adhesion ([3]; HL-60 cells)
CCCCCCCCCCCCC/C=C/[C@@H](O)[C@H](CO[C@@H]1O[C@H](CO)[C@@H](O[C@@H]2O[C@H](CO)[C@H](O)[C@H](O[C@@H]3O[C@H](CO)[C@@H](O[C@@H]4O[C@H](CO)[C@H](O)[C@H](O[C@]5(C(=O)O)C[C@H](O)[C@@H](NC(C)=O)[C@H]([C@H](O)[C@H](O)CO)O5)[C@H]4O)[C@H](O[C@@H]4O[C@@H](C)[C@@H](O)[C@@H](O)[C@@H]4O)[C@H]3NC(C)=O)[C@H]2O)[C@H](O)[C@H]1O)NC(=O)CCCCCCCCCCCCCCCCC [2→3 sialyl Le^x, reference compound] | 9320 | 448512 | 16869 |  |  | 
CCCCCCCCCCCCCCC(CCCCCCCCCCCCCC)C(=O)Nc1ccc(CO[C@@H]2O[C@H](CO)[C@@H](O[C@@H]3O[C@H](CO)[C@H](O)[C@H](O[C@]4(C(=O)O)C[C@H](O)[C@@H](NC(C)=O)[C@H]([C@H](O)[C@H](O)CO)O4)[C@H]3O)[C@H](O[C@@H]3O[C@@H](C)[C@@H](O)[C@@H](O)[C@@H]3O)[C@H]2O)cc1 [Compound 5E, para-(2-tetradecylhexadecanoyl)-aminobenzyl-O-(5-acetamido-3,5-dideoxy-D-glycero-α-D-galacto-2-nonulopyranosylonic acid)-(2→3)-O-β-galactopyranosyl-(1→4)-[O-α-L-fucopyranosyl-(1→3)-β-D-glucopyranoside], reference compound] | 14781 | 595253 | 24307 | 46.6% | 9.68% | 35.6%

From patent US5369096A, “Glycolipid derivatives” (The Nisshin Oil Mills, Ltd., priority 1992, dated 1994)
